Test results as given in US11986532B2 (Arvinas Operations, Inc., priority 2021, dated 2024).
Read-outs that look alike come from different tables or passages of the source.

Target: T1, BCL6 (Homo sapiens, UniProt P41182)
T1 construct: endogenous in cells; host or cells: T47D breast cancer epithelial cells
Test: Immunofluorescence protocol for high content imaging of BCL6 (degradation) in T47D cells, 3 days compound treatment
Type: cell-based
Conditions: for DC50: read-out: Mean DC50 (nM)* category; for Dmax: read-out: Mean Dmax (%)** category
Outline: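 Read-out: high-content imaging of anti-BCL6 immunofluorescence (Alexa-488 secondary) with CellMask and Hoechst counterstains, 10×, 4 fields/well. Cells had 3 days of compound exposure at 37° C, 5% CO2, 11-point 3-fold series from a final top of 0.1 or 1 μM.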

[1] = T47D cells, 3 days compound treatment

DC50 [1] [nM]	Dmax [1] [%]	Dmax (T47D) [%]	DC50 [nM]	Structure (SMILES)
< 10	50 to 70			CNC(=O)COc1cc2cc(Nc3nc(N4CCC(CN5CCC6(CC5)CN(c5ccc7c(c5)C(=O)N(C5CCC(=O)NC5=O)C7=O)C6(C)C)CC4)ncc3Cl)ccc2n(C(C)C)c1=O (stereo not shown) [Compound 133, 2-{[6-({5-chloro-2-[4-({2-[2-(2,6-dioxopiperidin-3-yl)-1,3-dioxo-2,3-dihydro-1H-isoindol-5-yl]-1,1-dimethyl-2,7-diazaspiro[3.5]nonan-7-yl}methyl)piperidin-1-yl]pyrimidin-4-yl}amino)-2-oxo-1-(propan-2-yl)-1,2-dihydroquinolin-3-yl]oxy}-N-methylacetamide]
		50 to 70	< 10	CNC(=O)COc1cc2cc(Nc3nc(N4CCC(OC5CCC6(CC5)CN(c5c(OC)ccc7c5CN(C5CCC(=O)NC5=O)C7=O)C6)CC4)ncc3Cl)ccc2n(C(C)C)c1=O (stereo not shown) [Compound 300, 2-{[6-({5-chloro-2-[4-({2-[2-(2,6-dioxopiperidin-3-yl)-5-methoxy-1-oxo-2,3-dihydro-1H-isoindol-4-yl]-2-azaspiro[3.5]nonan-7-yl}oxy)piperidin-1-yl]pyrimidin-4-yl}amino)-2-oxo-1-(propan-2-yl)-1,2-dihydroquinolin-3-yl]oxy}-N-methylacetamide]
		≥ 70	< 10	CNC(=O)COc1cc2cc(Nc3nc(N4CCC(CN5CCC6(CN(c7ccc8c(c7F)CN(C7CCC(=O)NC7=O)C8=O)C6)C(F)(F)C5)CC4)ncc3Cl)ccc2n(C(C)C)c1=O (stereo not shown) [Compound 332, 2-{[6-({5-chloro-2-[4-({2-[2-(2,6-dioxopiperidin-3-yl)-4-fluoro-1-oxo-2,3-dihydro-1H-isoindol-5-yl]-5,5-difluoro-2,7-diazaspiro[3.5]nonan-7-yl}methyl)piperidin-1-yl]pyrimidin-4-yl}amino)-2-oxo-1-(propan-2-yl)-1,2-dihydroquinolin-3-yl]oxy}-N-methylacetamide]
		≥ 70	< 10	[2H]C([2H])([2H])Oc1c(N2CC3(CCC(OC4CCN(c5ncc(Cl)c(Nc6ccc7c(c6)cc(OCC(=O)NC)c(=O)n7C(C)C)n5)CC4)CC3)C2)ccc2c1CN(C1CCC(=O)NC1=O)C2=O (stereo not shown) [Compound 225, 2-((6-((5-chloro-2-(4-((2-(2-(2,6-dioxopiperidin-3-yl)-4-(methoxy-d3)-1-oxoisoindolin-5-yl)-2-azaspiro[3.5]nonan-7-yl)oxy)piperidin-1-yl)pyrimidin-4-yl)amino)-1-isopropyl-2-oxo-1,2-dihydroquinolin-3-yl)oxy)-N-methylacetamide]
< 10	≥ 70			CNC(=O)COc1cc2cc(Nc3nc(N4CCC(OC5CCC6(CC5)CN(c5cc7c(cc5F)C(=O)N(C5CCC(=O)NC5=O)C7)C6)CC4)ncc3Cl)ccc2n(C(C)C)c1=O (stereo not shown) [Compound 123, 2-{[6-({5-chloro-2-[4-({2-[2-(2,6-dioxopiperidin-3-yl)-6-fluoro-1-oxo-2,3-dihydro-1H-isoindol-5-yl]-2-azaspiro [3.5]nonan-7-yl}oxy)piperidin-1-yl]pyrimidin-4-yl}amino)-2-oxo-1-(propan-2-yl)-1,2-dihydroquinolin-3-yl]oxy}-N-methylacetamide]
< 10	50 to 70			CNC(=O)COc1cc2cc(Nc3nc(N4CCC(CN5CCC6(CN(c7ccc8c(c7)C(=O)N(C7CCC(=O)NC7=O)C8=O)C6)C(F)(F)C5)CC4)ncc3Cl)ccc2n(C(C)C)c1=O (stereo not shown) [Compound 38, 2-{[6-({5-chloro-2-[4-({2-[2-(2,6-dioxopiperidin-3-yl)-1,3-dioxo-2,3-dihydro-1H-isoindol-5-yl]-5,5-difluoro-2,7-diazaspiro[3.5]nonan-7-yl}methyl)piperidin-1-yl]pyrimidin-4-yl}amino)-2-oxo-1-(propan-2-yl)-1,2-dihydroquinolin-3-yl]oxy}-N-methylacetamide]
		≥ 70	< 10	CNC(=O)COc1cc2c(F)c(Nc3cc(N4CCN(CC5CCC6(CC5)CN(c5cccc7c5C(=O)N(C5CCC(=O)NC5=O)C7=O)C6)CC4)ncc3Cl)ccc2n(C(C)C)c1=O (stereo not shown) [Compound 247, 2-{[6-({5-chloro-2-[4-({2-[2-(2,6-dioxopiperidin-3-yl)-1,3-dioxo-2,3-dihydro-1H-isoindol-4-yl]-2-azaspiro[3.5]nonan-7-yl}methyl)piperazin-1-yl]pyridin-4-yl}amino)-5-fluoro-2-oxo-1-(propan-2-yl)-1,2-dihydroquinolin-3-yl]oxy}-N-methylacetamide]
		50 to 70	< 10	CNC(=O)COc1cc2cc(Nc3nc(N4CCC(OC5CCC6(CC5)CN(c5ccc(F)c7c5CN(C5CCC(=O)NC5=O)C7=O)C6)CC4)ncc3Cl)ccc2n(C(C)C)c1=O (stereo not shown) [Compound 312, 2-{[6-({5-chloro-2-[4-({2-[2-(2,6-dioxopiperidin-3-yl)-7-fluoro-1-oxo-2,3-dihydro-1H-isoindol-4-yl]-2-azaspiro[3.5]nonan-7-yl}oxy)piperidin-1-yl]pyrimidin-4-yl}amino)-2-oxo-1-(propan-2-yl)-1,2-dihydroquinolin-3-yl]oxy}-N-methylacetamide]
10 to 50	< 50			CNC(=O)COc1cc2cc(Nc3nc(N4CC5C(CN6CCN(c7ccc8c(c7)C(=O)N(C7CCC(=O)NC7=O)C8=O)CC6)C5C4)ncc3Cl)ccc2n(C(C)C)c1=O (stereo not shown) [Compound 157, 2-{[6-({5-chloro-2-[6-({4-[2-(2,6-dioxopiperidin-3-yl)-1,3-dioxo-2,3-dihydro-1H-isoindol-5-yl]piperazin-1-yl}methyl)-3-azabicyclo [3.1.0]hexan-3-yl]pyrimidin-4-yl}amino)-2-oxo-1-(propan-2-yl)-1,2-dihydroquinolin-3-yl]oxy}-N-methylacetamide]
< 10	50 to 70			CNC(=O)COc1cc2cc(Nc3nc(N4CCC(F)(CN5CC6(CCN(c7cccc8c7CN(C7CCC(=O)NC7=O)C8=O)CC6)C5)CC4)ncc3Cl)ccc2n(C(C)C)c1=O (stereo not shown) [Compound 99]
10 to 50	50 to 70			CNC(=O)COc1cc2cc(Nc3nc(N4CCC(O[C@H]5C[C@H](N6CC[C@H](c7ccc8c(c7)C(=O)N(C7CCC(=O)NC7=O)C8=O)[C@H](F)C6)C5)CC4)ncc3Cl)ccc2n(C(C)C)c1=O (mixture of isomers) [Compound 118]
< 10	< 50			CNC(=O)COc1cc2cc(Nc3nc(N4CCN(CC5C6CN(c7ccc8c(c7)C(=O)N(C7CCC(=O)NC7=O)C8=O)CC56)CC4)ncc3Cl)ccc2n(C(C)C)c1=O (stereo not shown) [Compound 155, 2-{[6-({5-chloro-2-[4-({3-[2-(2,6-dioxopiperidin-3-yl)-1,3-dioxo-2,3-dihydro-1H-isoindol-5-yl]-3-azabicyclo [3.1.0]hexan-6-yl}methyl)piperazin-1-yl]pyrimidin-4-yl}amino)-2-oxo-1-(propan-2-yl)-1,2-dihydroquinolin-3-yl]oxy}-N-methylacetamide]

Structure (SMILES)	DC50 [1] [nM]	Dmax [1] [%]	Dmax (T47D) [%]	DC50 [nM]
CNC(=O)COc1cc2cc(Nc3nc(N4CCC(O[C@H]5C[C@H](N6CCC(c7ccc8c(c7F)[C@H](C)N([C@H]7CCC(=O)NC7=O)C8=O)CC6)C5)CC4)ncc3Cl)ccc2n(C(C)C)c1=O [Compound 290, 2-({6-[(5-chloro-2-{4-[(1r,3r)-3-{4-[(3S)-2-[(3S)-2,6-dioxopiperidin-3-yl]-4-fluoro-3-methyl-1-oxo-2,3-dihydro-1H-isoindol-5-yl]piperidin-1-yl}cyclobutoxy]piperidin-1-yl}pyrimidin-4-yl)amino]-2-oxo-1-(propan-2-yl)-1,2-dihydroquinolin-3-yl}oxy)-N-methylacetamide]			≥ 70	< 10
CNC(=O)COc1cc2cc(Nc3nc(N4CCC(O[C@H]5C[C@H](N6CCC7(CCN(c8ccc9c(c8)C(=O)N(C8CCC(=O)NC8=O)C9=O)CC7)CC6)C5)CC4)ncc3Cl)ccc2n(C(C)C)c1=O (stereo partly shown) [Compound 343, 2-({6-[(5-chloro-2-{4-[(1r,3r)-3-{9-[2-(2,6-dioxopiperidin-3-yl)-1,3-dioxo-2,3-dihydro-1H-isoindol-5-yl]-3,9-diazaspiro [5.5]undecan-3-yl}cyclobutoxy]piperidin-1-yl}pyrimidin-4-yl)amino]-2-oxo-1-(propan-2-yl)-1,2-dihydroquinolin-3-yl}oxy)-N-methylacetamide]			50 to 70	< 10
CNC(=O)COc1cc2cc(Nc3nc(N4CCC(O[C@H]5C[C@H](N6CCCC7(CCN(c8ccc9c(c8)C(=O)N(C8CCC(=O)NC8=O)C9=O)C7)C6)C5)CC4)ncc3Cl)ccc2n(C(C)C)c1=O (stereo partly shown) [Compound 355, 2-({6-[(5-chloro-2-{4-[(1r,3r)-3-{2-[2-(2,6-dioxopiperidin-3-yl)-1,3-dioxo-2,3-dihydro-1H-isoindol-5-yl]-2,7-diazaspiro[4.5]decan-7-yl}cyclobutoxy]piperidin-1-yl}pyrimidin-4-yl)amino]-2-oxo-1-(propan-2-yl)-1,2-dihydroquinolin-3-yl}oxy)-N-methylacetamide]			≥ 70	< 10
CNC(=O)COc1cc2cc(Nc3nc(N4CCC(O[C@H]5C[C@H](N6CCC(c7cc(F)c8c(c7F)CN([C@H]7CCC(=O)NC7=O)C8=O)CC6)C5)CC4)ncc3Cl)ccc2n(C(C)C)c1=O [Compound 188, 2-({6-[(5-chloro-2-{4-[(1r,3r)-3-(4-{2-[(3S)-2,6-dioxopiperidin-3-yl]-4,7-difluoro-1-oxo-2,3-dihydro-1H-isoindol-5-yl}piperidin-1-yl)cyclobutoxy]piperidin-1-yl}pyrimidin-4-yl)amino]-2-oxo-1-(propan-2-yl)-1,2-dihydroquinolin-3-yl}oxy)-N-methylacetamide]	< 10	≥ 70		
CNC(=O)COc1cc2cc(Nc3nc(N4CCC(O[C@H]5C[C@H](N6CCN(c7ccc8c(c7F)C(=O)N(C7CCC(=O)NC7=O)C8=O)CC6)C5)CC4)ncc3Cl)ccc2n(C(C)C)c1=O (stereo partly shown) [Compound 413, 2-({6-[(5-chloro-2-{4-[(1r,3r)-3-{4-[2-(2,6-dioxopiperidin-3-yl)-4-fluoro-1,3-dioxo-2,3-dihydro-1H-isoindol-5-yl]piperazin-1-yl}cyclobutoxy]piperidin-1-yl}pyrimidin-4-yl)amino]-2-oxo-1-(propan-2-yl)-1,2-dihydroquinolin-3-yl}oxy)-N-methylacetamide]			< 50	10 to 50
